US7759339B2, “Hydroxysteroid dehydrogenase inhibitors” (Takeda San Diego, Inc., priority 2005, dated 2010)

Molecular target: T1, 11b-HSD1 (Homo sapiens, UniProt P28845)
T1 construct: made in house; host or cells: E. coli DH10b-Tir
Assay: in vitro enzymatic 11b-HSD1 dehydrogenase activity assay
Assay type: biochemical
Details: 11b-HSD1 dehydrogenase assay; 10 μM each of cortisol and NADP+, 50 nM enzyme, 60 minutes at room temperature; reference point for this assay

T1 sequence (P28845 24-292): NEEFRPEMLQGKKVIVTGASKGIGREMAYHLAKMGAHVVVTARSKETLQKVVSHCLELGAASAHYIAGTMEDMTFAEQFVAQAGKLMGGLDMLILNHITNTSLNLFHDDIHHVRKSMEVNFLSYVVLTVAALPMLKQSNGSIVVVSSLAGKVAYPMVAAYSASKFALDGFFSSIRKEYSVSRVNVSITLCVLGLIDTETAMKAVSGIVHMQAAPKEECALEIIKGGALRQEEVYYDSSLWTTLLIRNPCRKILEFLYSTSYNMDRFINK

- IC50: 500 nM
SMILES: CCN(CC)C(=O)Cc1csc(NS(=O)(=O)c2cccc(Cl)c2C)n1 [BVT14225]
